Results as given in US8969565B2, “Imidazo[1,2-b]pyridazine-based compounds, compositions comprising them, and methods of their use” (Lexicon Pharmaceuticals, Inc., priority 2012, dated 2015).

Target: T1, AAK1 (Homo sapiens, UniProt Q2M2I8)
T1 construct: HA; expressed in transfected cells; host or cells: HEK293F
Assay: HEK281 cell-based assay (phospho-mu2 Western blot in transfected HEK293F cells)
Settings: 3 hours incubation, read-out: CBA IC50
Experimental: HEK293F cells were cultured in media containing DMEM (Gibco, cat. #11965), 10% FBS (SAFC Biosciences, cat. #12103C), 1×GPS (glutamine, penicillin and streptomycin). On day one, cells were plated on a 10 cm dish so that they are ˜80% confluent at time of transfection. Roughly 12 million cells were in a 10 cm dish at time of transfection. On day two, each dish was transfected with 48 ug DNA and 144 ul Lipofectamine 2000 (Invitrogen, cat.#11668-019). The DNA was comprised of a mixture (per 10 cm dish) containing 3 ug AAK1/HA/pIRES (full length human, NCBI accession no. NP_055726.2), 45 μg Flag/AP2MI/pcDNA (full length human), and 1.5 ml OPTI-MEM. The Lipofectamine 2000 is made up of a mixture (per 10 cm dish) containing 144 μl Lipofectamine 2000 and 1.5 ml OPTI-MEM. Each mixture was transferred to individual 15 ml tubes and incubated at RT for 5 minutes, and then the two mixes were combined and incubated at RT for 20 minutes. Growth media was then aspirated from each 10 cm plate and replaced with 10 ml of DMEM+10% FBS (no GPS). Finally, 3 ml DNA/Lipofectamine mix was added to each 10 cm dish and mix gently followed by incubate of plate overnight at 37° C. and 5% CO2.
On day three, compounds were diluted in 100% DMSO at 1000× final concentration, followed by 3-fold serial dilutions for a total of 5 concentrations tested. Four compounds were tested per 10 cm dish. One ul of each compound dilution was then pipetted into a deep-well, 96-well plate, followed by addition of 500 μl DMEM+0.5% FBS into each well for a 2× final concentration of each compound. Cells were resuspended in a 10 cm dish by simple pipetting (HEK293 cells come off the plate that easy at this point) and then transferred to a 50 ml conical tube and pelleted by centrifugation at 1000 rpm for 5 min. Cell pellets were then resuspended in 2.75 ml DMEM+0.5% FBS per 10 cm dish and 100 μl of cell suspension transferred into each well of 96-well TC plate. Finally, 100 μl of 2× compound diluted in DMEM+0.5% FBS was then added into wells containing cell suspension for a 1× final concentration. Plates were then incubated at 37° C. and 5% CO2 for 3 hours followed by transferring of cell suspensions from each well into 12-tube PCR strips. The PCR strips were spun in a tip rack at 1000 rpm for 5 minutes to pellet cells and media was then removed by pipetting without disturbing the cell pellet.
To prepare for Western Blot analysis, cell pellets were resuspend in 40 ul 1×LDS-PAGE sample buffer (Invitrogen, cat.#NP0008)+2× Halt phophatase and protease inhibitor cocktail (Thermo Scientific, cat.#1861284), followed by sonicating each with microtip sonicator set at 5 for 8-10 seconds. Five ul of 10× NuPage Sample Reducing Agent (with 50 mM DTT) was to each sample followed by heat denaturing at 70 C for 10 min on PCR machine. A total of 10 μl per sample was loaded into each lane of a 4-20% Tris-Glycine Criterion 26-well gel (Biorad, cat.#345-0034) for the phospho-mu2 blot and 10 μl per lane in a 4-12% Bis-Tris (+MES buffer) NuPAGE 26-well gel (Invitrogen, cat.#WG1403BX10) for the mu2 blot. For controls, 2 ng of phospho-mu2 or 20 ng mu2/Flag proteins were loaded in the last well of each gel. After SDS-PAGE, samples on each gel were transferred to PVDF membrane using an iBlot and membranes were blocked for one hour in TBST+5% milk, followed by wash 3× for 5-10 min with TBST. Criterion gels were probed with rabbit anti-phospho-mu2 (1:5000; a rabbit polyclonal antibody produced by New England Peptide and affinity purified at Lexicon) in TBST+5% BSA, whereas, NuPAGE gels were probed with mouse anti-Flag (1:500; Sigma, cat.#F1804) in TBST+5% milk, and these primary antibodies were incubated overnight at 4° C. on a rocker.

T1 sequence (Q2M2I8 1-863 isoform Q2M2I8-2): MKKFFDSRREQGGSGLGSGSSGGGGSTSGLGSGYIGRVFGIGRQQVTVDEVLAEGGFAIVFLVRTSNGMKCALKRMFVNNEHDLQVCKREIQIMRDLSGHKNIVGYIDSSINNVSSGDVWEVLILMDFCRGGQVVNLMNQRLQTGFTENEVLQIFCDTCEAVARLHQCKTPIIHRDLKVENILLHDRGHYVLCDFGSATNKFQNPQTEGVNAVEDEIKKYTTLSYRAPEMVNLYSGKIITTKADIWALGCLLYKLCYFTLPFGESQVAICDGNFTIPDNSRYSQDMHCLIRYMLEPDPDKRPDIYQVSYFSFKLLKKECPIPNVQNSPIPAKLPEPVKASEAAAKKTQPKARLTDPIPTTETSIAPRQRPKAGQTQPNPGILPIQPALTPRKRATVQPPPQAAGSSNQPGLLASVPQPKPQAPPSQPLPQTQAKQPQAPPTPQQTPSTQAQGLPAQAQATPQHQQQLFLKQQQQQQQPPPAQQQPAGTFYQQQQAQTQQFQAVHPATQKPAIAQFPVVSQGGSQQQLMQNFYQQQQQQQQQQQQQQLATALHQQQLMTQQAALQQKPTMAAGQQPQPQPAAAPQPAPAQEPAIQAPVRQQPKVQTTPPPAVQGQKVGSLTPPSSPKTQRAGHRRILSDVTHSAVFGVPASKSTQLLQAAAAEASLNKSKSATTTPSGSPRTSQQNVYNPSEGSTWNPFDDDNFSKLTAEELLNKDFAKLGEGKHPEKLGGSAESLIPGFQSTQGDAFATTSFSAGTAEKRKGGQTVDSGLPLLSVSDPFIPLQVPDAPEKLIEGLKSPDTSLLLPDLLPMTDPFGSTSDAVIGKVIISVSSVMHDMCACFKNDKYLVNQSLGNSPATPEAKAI

SMILES	IC50 [nM]
CC(C)(C)CCNc1ccc2ncc(-c3ccc(CN)cc3)n2n1 [3-(4-(aminomethyl)phenyl)-N-(3,3-dimethylbutyl)imidazo[1,2-b]pyridazin-6-amine]	≤ 100
NCc1ccc(-c2cnc3ccc(NCCCc4ccccc4F)nn23)cc1 [3-(4-(aminomethyl)phenyl)-N-(3-(2-fluorophenyl)propyl)imidazo[1,2-b]pyridazin-6-amine]	≤ 100
NCc1ccc(-c2cnc3ccc(NCCCc4cccc(F)c4)nn23)cc1 [3-(4-(aminomethyl)phenyl)-N-(3-(3-fluorophenyl)propyl)imidazo[1,2-b]pyridazin-6-amine]	≤ 100
NCc1ccc(-c2cnc3ccc(NCCCc4ccc(F)cc4)nn23)cc1 [3-(4-(aminomethyl)phenyl)-N-(3-(4-fluorophenyl)propyl)imidazo[1,2-b]pyridazin-6-amine]	≤ 100
NCc1ccc(-c2cnc3ccc(NCCCOC4CCCC4)nn23)cc1 [3-(4-(aminomethyl)phenyl)-N-(3-(cyclopentyloxy)propyl)imidazo[1,2-b]pyridazin-6-amine]	≤ 100
CC(C)(C)OCCCNc1ccc2ncc(-c3ccc(CN)cc3)n2n1 [3-(4-(aminomethyl)phenyl)-N-(3-(tert-butoxy)propyl)imidazo[1,2-b]pyridazin-6-amine]	≤ 100
NCc1ccc(-c2cnc3ccc(NCCc4cccc(C(F)(F)F)c4)nn23)cc1 [3-(4-(aminomethyl)phenyl)-N-(3-(trifluoromethyl)phenethyl)imidazo[1,2-b]pyridazin-6-amine]	≤ 100
NCc1ccc(-c2cnc3ccc(NCCc4cccc(F)c4)nn23)cc1 [3-(4-(aminomethyl)phenyl)-N-(3-fluorophenethyl)imidazo[1,2-b]pyridazin-6-amine]	≤ 100
NCc1ccc(-c2cnc3ccc(NCCCF)nn23)cc1 [3-(4-(aminomethyl)phenyl)-N-(3-fluoropropyl)imidazo[1,2-b]pyridazin-6-amine]	≤ 1000
COc1cccc(CCNc2ccc3ncc(-c4ccc(CN)cc4)n3n2)c1 [3-(4-(aminomethyl)phenyl)-N-(3-methoxyphenethyl)imidazo[1,2-b]pyridazin-6-amine]	≤ 100
NCc1ccc(-c2cnc3ccc(NCCCCF)nn23)cc1 [3-(4-(aminomethyl)phenyl)-N-(4-fluorobutyl)imidazo[1,2-b]pyridazin-6-amine]	≤ 100
NCc1ccc(-c2cnc3ccc(NCCc4ccc(F)cc4)nn23)cc1 [3-(4-(aminomethyl)phenyl)-N-(4-fluorophenethyl)imidazo[1,2-b]pyridazin-6-amine]	≤ 1000
COc1ccc(CCNc2ccc3ncc(-c4ccc(CN)cc4)n3n2)cc1 [3-(4-(aminomethyl)phenyl)-N-(4-methoxyphenethyl)imidazo[1,2-b]pyridazin-6-amine]	≤ 100
NCc1ccc(-c2cnc3ccc(NCCCCc4ccccc4)nn23)cc1 [3-(4-(aminomethyl)phenyl)-N-(4-phenylbutyl)imidazo[1,2-b]pyridazin-6-amine]	≤ 100
NCc1ccc(-c2cnc3ccc(NCCCCCF)nn23)cc1 [3-(4-(aminomethyl)phenyl)-N-(5-fluoropentyl)imidazo[1,2-b]pyridazin-6-amine]	≤ 1000
NCc1ccc(-c2cnc3ccc(NCC4CCOC4)nn23)cc1 (centres unmarked) [3-(4-(aminomethyl)phenyl)-N-((tetrahydrofuran-3-yl)methyl)imidazo[1,2-b]pyridazin-6-amine]	≤ 1000
NCc1ccc(-c2cnc3ccc(NCC4CCC4)nn23)cc1 [3-(4-(aminomethyl)phenyl)-N-(cyclobutylmethyl)imidazo[1,2-b]pyridazin-6-amine]	≤ 1000
NCc1ccc(-c2cnc3ccc(NCC4CCCC4)nn23)cc1 [3-(4-(aminomethyl)phenyl)-N-(cyclopentylmethyl)imidazo[1,2-b]pyridazin-6-amine]	≤ 1000

SMILES	IC50 [nM]
NCc1ccc(-c2cnc3ccc(NCC4CC4)nn23)cc1 [3-(4-(aminomethyl)phenyl)-N-(cyclopropylmethyl)imidazo[1,2-b]pyridazin-6-amine]	≤ 1000
CC(C)CNc1ccc2ncc(-c3ccc(CN)cc3)n2n1 [3-(4-(aminomethyl)phenyl)-N-isobutylimidazo[1,2-b]pyridazin-6-amine]	≤ 1000
CC(C)CCNc1ccc2ncc(-c3ccc(CN)cc3)n2n1 [3-(4-(aminomethyl)phenyl)-N-isopentylimidazo[1,2-b]pyridazin-6-amine]	≤ 1000
CC(C)(C)CNc1ccc2ncc(-c3ccc(CN)cc3)n2n1 [3-(4-(aminomethyl)phenyl)-N-neopentylimidazo[1,2-b]pyridazin-6-amine]	≤ 100
CCCCCNc1ccc2ncc(-c3ccc(CN)cc3)n2n1 [3-(4-(aminomethyl)phenyl)-N-pentylimidazo[1,2-b]pyridazin-6-amine]	≤ 1000
NCc1ccc(-c2cnc3ccc(NCCc4ccccc4)nn23)cc1 [3-(4-(aminomethyl)phenyl)-N-phenethylimidazo[1,2-b]pyridazin-6-amine]	≤ 1000
CCCNc1ccc2ncc(-c3ccc(CN)cc3)n2n1 [3-(4-(aminomethyl)phenyl)-N-propylimidazo[1,2-b]pyridazin-6-amine]	≤ 1000
CC(C)OC(=O)N1CCN(c2ccc3ncc(-c4ccccc4)n3n2)CC1 [4-(3-Phenyl-imidazo[1,2-b]pyridazin-6-yl)-piperazine-1-carboxylic acid isopropyl ester]	≤ 100
CN(CCNc1ccc2ncc(-c3ccc(C(N)=O)cc3)n2n1)C(=O)CC(C)(C)C [4-(6-((2-(N,3,3-trimethylbutanamido)ethyl)amino)imidazo[1,2-b]pyridazin-3-yl)benzamide]	≤ 100
CCN(CC)CCNC(=O)c1ccc(-c2cnc3ccc(NCCOC(C)(C)C)nn23)cc1 [4-(6-((2-(tert-butoxy)ethyl)amino)imidazo[1,2-b]pyridazin-3-yl)-N-(2-(diethylamino)ethyl)benzamide]	≤ 100
CNC(=O)c1ccc(-c2cnc3ccc(NCCOC(C)(C)C)nn23)cc1 [4-(6-((2-(tert-butoxy)ethyl)amino)imidazo[1,2-b]pyridazin-3-yl)-N-methylbenzamide]	≤ 100
NC(=O)c1ccc(-c2cnc3ccc(NCCc4ccccc4OC(F)(F)F)nn23)cc1 [4-(6-((2-(trifluoromethoxy)phenethyl)amino)imidazo[1,2-b]pyridazin-3-yl)benzamide]	≤ 10
CCOc1ccccc1CCNc1ccc2ncc(-c3ccc(C(=O)NC)cc3)n2n1 [4-(6-((2-ethoxyphenethyl)amino)imidazo[1,2-b]pyridazin-3-yl)-N-methylbenzamide]	≤ 10
CC(C)COCCNc1ccc2ncc(-c3ccc(C(=O)NCCN4CCCC4)cc3)n2n1 [4-(6-((2-isobutoxyethyl)amino)imidazo[1,2-b]pyridazin-3-yl)-N-(2-(pyrrolidin-1-yl)ethyl)benzamide]	≤ 100
CC(C)OCCNc1ccc2ncc(-c3ccc(C(=O)NCCN4CCCC4)cc3)n2n1 [4-(6-((2-isopropoxyethyl)amino)imidazo[1,2-b]pyridazin-3-yl)-N-(2-(pyrrolidin-1-yl)ethyl)benzamide]	≤ 100
COc1ccccc1CCNc1ccc2ncc(-c3ccc(C(N)=O)cc3)n2n1 [4-(6-((2-methoxyphenethyl)amino)imidazo[1,2-b]pyridazin-3-yl)benzamide]	≤ 10
NC(=O)c1ccc(-c2cnc3ccc(NCCc4cccc(C(F)(F)F)c4)nn23)cc1 [4-(6-((3-(trifluoromethyl)phenethyl)amino)imidazo[1,2-b]pyridazin-3-yl)benzamide]	≤ 100
